Assay results as given in US7294330B2, “β-glucuronidase inhibitors for use in deodorants and antiperspirants” (priority 2001, dated 2007).
Where a name gives a salt, the structure may show the parent alone. Read-outs that look alike come from different tables or passages of the source.

Molecular target: T1, β-glucuronidase (Sigma) (EC 3.2.1.31) from E. coli (Escherichia coli, UniProt P05804)
T1 construct: purchased Sigma G-7396
Assay: biochemical
Settings: for remaining activity at 0.001 %: test concentration 0.001 %
Procedure: Investigation of the inhibitory action of the β-glucuronidase inhibitors (in vitro)
Since the skin-relevant β-glucuronidase was not available, a commercially available β-glucuronidase (Sigma) (EC 3.2.1.31) from E. coli served as the model enzyme for testing the inhibitory action of the inhibitors used according to the invention. The tests were carried out with the β-glucuronidase enzyme assay product no. G-7396 from Sigma in accordance with the instructions in the Sigma Quality Control Test Procedure datasheet.
For the evaluation, the phenolphthalein formed from the substrate phenolphthalein glucuronide by β-glucuronidase was determined spectrophotometrically (λ=540 nm).
The reaction solutions of 300 μl, which were temperature-controlled at a reaction temperature of 37° C., comprised 30 mM potassium phosphate buffer with 0.04% of albumin (pH 6.8), 0.5 mM phenolphthalein glucuronide (substrate) and a starting concentration of 40 U/ml (=12 U) of β-glucuronidase. The unit U of the enzyme activity was defined such that 1 U of β-glucuronidase hydrolyses 1.0 μmol of phenolphthalein glucuronide per minute at pH 6.8 and 37° C.
The reaction was started by addition of the enzyme and incubation was carried out for 30 min at 37° C. The reaction was then stopped with 3.5 times the volume of a 200 mM glycine solution of pH 10.4. In the photometric end point determination, the amount of phenolphthalein liberated was determined at the wavelength of λ=540 nm and at 37° C.
In batches with inhibitor, 0.2 ml of the appropriately concentrated reagents and 0.1 ml of the inhibitor, dissolved in water, were mixed. In each case a concentration series of the inhibitor was tested here. The absorption (A) here is a measure of the activity of the enzyme (ΔA). The activity of the enzyme in the absence of an inhibitor (ΔA1) was set at 100% as the reference. Under analogous conditions, the activities were determined in the presence of an inhibitor (ΔA2). The inhibitory action of the inhibitor was shown as the residual activity of the enzyme activity, calculated in accordance with the equation 100%−(ΔA2)/(ΔA1)%.

[1] = 0.5 h, concentration in the test 0.01 % (head of grid column 4, first sub-table), 30 min, 37° C., pH 6.8, read-out: Residual activity
[2] = 0.5 h, test concentration 0.01 %, 30 min, 37° C., pH 6.8, read-out: Residual activity
[3] = 0.5 h, test concentration 0.10 %, 30 min, 37° C., pH 6.8, read-out: Residual activity
[4] = 0.5 h, test concentration 1.00 %, 30 min, 37° C., pH 6.8, read-out: Residual activity
[5] = test concentration 0.10 %, 30 min, 37° C., pH 6.8
[6] = test concentration 0.50 %, 30 min, 37° C., pH 6.8
[7] = 0.5 h, pH 6.8, read-out: Residual activity
[8] = 0.5 h, 30 min, 37° C., pH 6.8, read-out: Residual activity
[9] = test concentration 0.01 %, 30 min, 37° C., pH 6.8
[10] = test concentration 1.00 %, 30 min, 37° C., pH 6.8
[11] = test concentration 0.08 %, 30 min, 37° C., pH 6.8
[12] = test concentration 2.00 %, 30 min, 37° C., pH 6.8

T1 sequence (P05804 whole entry): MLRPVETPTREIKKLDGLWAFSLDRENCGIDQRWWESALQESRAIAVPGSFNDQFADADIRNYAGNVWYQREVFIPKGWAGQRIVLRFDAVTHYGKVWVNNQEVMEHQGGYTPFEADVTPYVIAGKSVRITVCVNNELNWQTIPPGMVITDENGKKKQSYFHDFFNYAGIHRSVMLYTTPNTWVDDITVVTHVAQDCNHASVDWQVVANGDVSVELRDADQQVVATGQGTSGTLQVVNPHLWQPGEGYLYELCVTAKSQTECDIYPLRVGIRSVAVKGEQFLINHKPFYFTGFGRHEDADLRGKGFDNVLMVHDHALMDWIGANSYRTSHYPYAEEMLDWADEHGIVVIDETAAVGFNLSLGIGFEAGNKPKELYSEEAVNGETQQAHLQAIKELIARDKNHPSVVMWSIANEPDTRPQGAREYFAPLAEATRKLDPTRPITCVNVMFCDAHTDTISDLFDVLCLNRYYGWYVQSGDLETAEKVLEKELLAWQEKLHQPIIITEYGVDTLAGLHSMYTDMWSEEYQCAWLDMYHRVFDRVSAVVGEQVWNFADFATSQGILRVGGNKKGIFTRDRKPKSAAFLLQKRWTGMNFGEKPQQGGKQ

Which remaining activity at 0.0005 % (0.5 h, concentration in the test 0.0005 % (head of grid column 3, first sub-table), 30 min, 37° C., pH 6.8, read-out: Residual activity) does the source give for C=C(C)C1CCC(C)CC1O (stereo not shown) [Coolact P, 5-methyl-2-(1-methylvinyl)cyclohexan-1-ol] here?
The remaining activity at 0.0005 % was 184%.

What about the remaining activity at 0.01 % [1] of the same compound?
Its remaining activity at 0.01 % is 38%.

What does the source list for O.O.O.O.O.[Cl][Cu][Cl] [CuCl2 × 5H2O, CuCl2·5 H2O]?
Residual activity (test concentration 0.000005 %, 30 min, 37° C., pH 6.8): 105%; Residual activity (test concentration 0.00005 %, 30 min, 37° C., pH 6.8): 39%; Residual activity (test concentration 0.00025 %, 30 min, 37° C., pH 6.8): 7%

What does the source list for CC(O)(P(=O)(O)O)P(=O)(O)O [Dequest 2016D, 1-Hydroxyethane-1,1-diphosphonic acid tetrasodium salt]?
remaining activity at 8e-05 % (0.5 h, concentration in the test 0.00008 % (head of grid column 1, first sub-table), 30 min, 37° C., pH 6.8, read-out: Residual activity): 99%; remaining activity at 0.0008 % (0.5 h, concentration in the test 0.0008 % (head of grid column 2, first sub-table), 30 min, 37° C., pH 6.8, read-out: Residual activity): 95%; remaining activity at 0.01 % [1]: 52%

Which remaining activity at 0.01 % [2] does the source give for O=C(O)C(O)c1ccc(O)cc1 (stereo not shown) [Dermosoft HMA, p-Hydroxymandelic acid sodium salt] here?
The remaining activity at 0.01 % was 110%.

And the remaining activity at 0.1 % [3]?
The remaining activity at 0.1 % was 99%.

And the remaining activity at 1 % [4]?
The remaining activity at 1 % was 56%.

Which results are given for C=CCc1ccc(O[C@@H]2O[C@H](CO)[C@@H](O)[C@H](O)[C@H]2O)c(OC)c1 [Eugenyl Glucoside, 2-methoxy-4-(2-propenyl)phenyl β-D-glucoside]?
Residual activity [5]: 53%; Residual activity [6]: 12%

With NCC(=O)O [Glycine, glycine] as the compound, how does the remaining activity at 0.01 % [7] read?
Its remaining activity at 0.01 % is 95%.

And the remaining activity at 0.1 % [7]?
Its remaining activity at 0.1 % is 91%.

What about the remaining activity at 0.5 % [7] of the same compound?
Its remaining activity at 0.5 % is 70%.

What about the remaining activity at 1 % [7] of the same compound?
The remaining activity at 1 % was 52%.

What about the remaining activity at 2 % [7] of the same compound?
The remaining activity at 2 % was 32%.

How did the remaining activity at 0.001 % [8] turn out when CC(C)c1cccc(=O)c(O)c1 [Hinokitiol (DMSO), 2-hydroxy-4-isopropyl-2,4,6-cycloheptatrien-1-one] was run?
Its remaining activity at 0.001 % is 112%.

And the remaining activity at 0.01 % [2]?
Its remaining activity at 0.01 % is 156%.

And the remaining activity at 0.1 % [3]?
Its remaining activity at 0.1 % is 30%.

What about the remaining activity at 1 % [4] of the same compound?
The remaining activity at 1 % was 2%.

What does the source list for O=C([O-])C(O)C(O)C(O)C(O)C(O)CO.O=C([O-])C(O)C(O)C(O)C(O)C(O)CO.[Mg+2] (stereo not shown) [Magnesium glucoheptonate, magnesium glucoheptonate]?
Residual activity [9]: 55%; Residual activity [5]: 50%

How did the remaining activity at 0.001 % [8] turn out when C[C@@H]1O[C@@H](O[C@H]2[C@H](Oc3cc(O)c4c(c3)O[C@H](c3ccc(O)cc3)CC4=O)O[C@H](CO)[C@@H](O)[C@@H]2O)[C@H](O)[C@H](O)[C@H]1O [Naringin, naringenin 7-rhamnoglucoside] was run?
Its remaining activity at 0.001 % is 103%.

And the remaining activity at 0.01 % [2]?
Its remaining activity at 0.01 % is 94%.

What about the remaining activity at 0.1 % [3] of the same compound?
Its remaining activity at 0.1 % is 47%.

OCCc1ccccc1 [Phenylethyl alcohol, 2-phenylethyl alcohol] was tested. Which remaining activity at 0.01 % [2] did it give?
The remaining activity at 0.01 % was 121%.

What about the remaining activity at 0.1 % [3] of the same compound?
Its remaining activity at 0.1 % is 227%.

What about the remaining activity at 1 % [4] of the same compound?
Its remaining activity at 1 % is 49%.

With O=P(O)(O)O[C@H]1[C@H](OP(=O)(O)O)[C@@H](OP(=O)(O)O)[C@H](OP(=O)(O)O)[C@@H](OP(=O)(O)O)[C@H]1OP(=O)(O)O [Phytic acid, myo-inositol-hexaphosphoric acid] as the compound, how does the remaining activity at 0.01 % [2] read?
The remaining activity at 0.01 % was 90%.

And the remaining activity at 0.05 % (0.5 h, test concentration 0.05 %, 30 min, 37° C., pH 6.8, read-out: Residual activity)?
The remaining activity at 0.05 % was 86%.

What about the remaining activity at 0.1 % [3] of the same compound?
The remaining activity at 0.1 % was 71%.

And the remaining activity at 0.38 % (0.5 h, test concentration 0.38 %, 30 min, 37° C., pH 6.8, read-out: Residual activity)?
The remaining activity at 0.38 % was 68%.

And the remaining activity at 1 % [4]?
The remaining activity at 1 % was 16%.

For CC(O)C(=O)[O-].[K+] (stereo not shown) [Purasal P Hipure 60, Potassium lactate], which Residual activity [9] is on record?
Its Residual activity is 96%.

And the Residual activity [5]?
Its Residual activity is 88%.

What about the Residual activity [10] of the same compound?
Its Residual activity is 52%.

Which results are given for CC(=O)CCc1ccc(O[C@@H]2O[C@H](CO)[C@@H](O)[C@H](O)[C@H]2O)cc1 [Raspberry ketone glucoside, 4-(γ-ketobutyl)phenyl β-D-glucoside]?
Residual activity [6]: 125%; Residual activity [10]: 49%

O=C(/C=C/c1ccc(O)c(O)c1)O[C@H](Cc1ccc(O)c(O)c1)C(=O)O [Rosemary acid, rosemary acid] was tested. Which Residual activity (test concentration 0.0008 %, 30 min, 37° C., pH 6.8) did it give?
Its Residual activity is 48%.

And the Residual activity (test concentration 0.008 %, 30 min, 37° C., pH 6.8)?
Its Residual activity is 15%.

What about the Residual activity [11] of the same compound?
Its Residual activity is 19%.

What about the Residual activity (test concentration 8 · 10^−5 %, 30 min, 37° C., pH 6.8) of the same compound?
Its Residual activity is 86%.

For O=C([O-])CN(CC(=O)[O-])CC(=O)[O-].[Na+].[Na+].[Na+] [Trilon A, Nitrilotriacetic acid 3 Na, reference compound], which Residual activity [9] is on record?
The Residual activity was 100%.

What about the Residual activity [5] of the same compound?
Its Residual activity is 90%.

And the Residual activity [6]?
Its Residual activity is 71%.

What about the Residual activity [10] of the same compound?
The Residual activity was 59%.

What about the Residual activity [12] of the same compound?
Its Residual activity is 52%.

What does the source list for O=C([O-])CN(CCN(CC(=O)[O-])CC(=O)[O-])CC(=O)[O-].[Na+].[Na+].[Na+].[Na+] [Trilon B, EDTA-4 Na, reference compound]?
Residual activity [9]: 108%; Residual activity [5]: 86%; Residual activity [6]: 57%; Residual activity [10]: 51%; Residual activity [12]: 43%

Which results are given for CC(C(=O)[O-])N(CC(=O)[O-])CC(=O)[O-].[Na+].[Na+].[Na+] (stereo not shown) [Trilon M, Methylglycinediacetic acid trisodium salt]?
Residual activity [9]: 99%; Residual activity [5]: 91%; Residual activity [10]: 55%

Which results are given for O=C([O-])CC(O)(CC(=O)[O-])C(=O)[O-].[K+].[K+].[K+] [Tripotassium citrate, tripotassium citrate]?
Residual activity [9]: 97%; Residual activity [5]: 86%; Residual activity [10]: 47%

With CC(O)C(=O)[O-].CC(O)C(=O)[O-].[Zn+2] (stereo not shown) [Zinc lactate, zinc lactate] as the compound, how does the Residual activity (test concentration 0.005 %, 30 min, 37° C., pH 6.8) read?
Its Residual activity is 77%.

What about the Residual activity (test concentration 0.05 %, 30 min, 37° C., pH 6.8) of the same compound?
The Residual activity was 55%.

What about the Residual activity [11] of the same compound?
Its Residual activity is 30%.

What about the Residual activity [6] of the same compound?
Its Residual activity is 3%.

What does the source list for O=C1CC[C@@H](C(=O)[O-])N1.O=C1CC[C@@H](C(=O)[O-])N1.[Zn+2] [Zincidone]?
Residual activity [9]: 79%; Residual activity [5]: 8%; Residual activity [10]: 3%

With Copper gluconate [Givobio GCU] as the compound, how does the Residual activity [9] read?
The Residual activity was 81%.

What about the Residual activity [5] of the same compound?
The Residual activity was 50%.

What does the source list for zinc gluconate?
Residual activity [9]: 88%; Residual activity [5]: 54%; Residual activity (test concentration 0.25 %, 30 min, 37° C., pH 6.8): 3%; Residual activity [10]: 1%
